{
  "source": "patent US9868757B2",
  "about": "“5-β, 14-β-androstane derivatives useful for the treatment of proteinuria, glomerulosclerosis and renal failure” (SIGMA-TAU INDUSTRIE FARMACEUTICHE RIUNITE S.p.A., priority 2009, dated 2018)",
  "key": {"[1]": {"test_system": "rats chronically infused with ouabain (OS rats)", "experiment": "Nephrin quantification from renal cortex microsomes of OS rats by Western blotting", "type": "in vivo, rat", "protocol": "(§1) To test the activity of the compound of the invention for the prevention of proteinuria and loss of renal glomerular proteins, rats chronically infused with ouabain (OS rats) or saline (Control rats) were utilized.\n(§2) Two groups of 2-month-old OS rats (n=8 each) were orally treated by gavage with vehicle (Methocel 0.5%) or Rostafuroxin (100 μg/kg) for 8 weeks. One group of saline infused rats was used as control. After this period, systolic blood pressure and urinary protein excretion was measured in the three groups. The animals of the three groups were then sacrificed for nephrin quantification from renal cortex microsomes by Western blotting.\n(§3) Three week-old male Sprague-Dawley rats (Harlan, Ind.), weighing 100-110 g, were subcutaneously implanted with osmotic mini-pumps, releasing either 15 μg/kg/day of ouabain (OS rats, n=16) for 14 weeks or sterile saline (CS rats, n=8) (Ferrari P. et al. J. Pharmacol Exp. Ther. 1998; 285: 83-94). […] Systolic blood pressure (SBP) and heart rate (HR) were measured weekly in conscious rats by tail-cuff plethysmography (BP recorder, U. Basile, Italy).\n(§4) Urinary parameters were measured in conscious OS and control rats at the 12th week of treatment. […] After centrifugation (4500 rpm for 20 min; Varifuge 3.2 RS, Haereus Instruments, AHSI, Milan, Italy), rat urines were analyzed for the urinary volume (ml), quantified by weighing the urinary reservoir on a precision Mettler balance; urinary pH (pHM83, Radiometer, Copenhagen) and total urinary protein excretion (mg/24 h), measured with a standard total protein Kit (Sentinel Diagnostics, Milan, Italy). The animals of the three groups were then sacrificed, renal cortical microsomes were prepared from each rat and nephrin, the key protein of the slit diaphragm membrane, was quantified by Western blotting. […] Nephrin quantification is expressed as optical density, arbitrary units."}, "[2]": {"test_system": "rats chronically infused with ouabain (OS rats)", "experiment": "Systolic blood pressure by tail-cuff plethysmography in ouabain-infused (OS) rats", "type": "in vivo, rat", "protocol": "as §1, §2\nThree week-old male Sprague-Dawley rats (Harlan, Ind.), weighing 100-110 g, were subcutaneously implanted with osmotic mini-pumps, releasing either 15 μg/kg/day of ouabain (OS rats, n=16) for 14 weeks or sterile saline (CS rats, n=8) (Ferrari P. et al. J. Pharmacol Exp. Ther. 1998; 285: 83-94). At the 6th week of ouabain infusion, OS rats were randomly assigned to two groups (n=8 each): the first (OS treated) received Rostafuroxin orally at 100 μg/kg/day, suspended in 0.5% w/v Methocel, and the second group (controls) only vehicle. Systolic blood pressure (SBP) and heart rate (HR) were measured weekly in conscious rats by tail-cuff plethysmography (BP recorder, U. Basile, Italy)."}, "[3]": {"test_system": "Podocytes from NB rats", "experiment": "Podocyte protein quantification by Western blotting in cultured podocytes from NB rats", "type": "cell-based, rat", "from_the_text": "To test the activity of the compound of the invention for the prevention of loss of podocyte proteins, congenic NB rats carrying the beta adducin mutation (Tripodi G. et at Effect of Addl gene transfer on blood pressure in reciprocal congenic strains of Milan rats. BBRC 2004; 324: 562-568) were used. Said NB rats are non-hypertensive rats and are available at Prassis Research Institute, Sigma-tau, Italy.\nNB rats of 7 to 10 days of age were used for podocyte isolation and culture. Podocytes from NB rats were incubated for 5 days without (NB control, n=4) and with Rostafuroxin at 10^−9M (NB n=5). Podocyte proteins were quantified at the end of the 5 days of incubation by Western blotting. The quantification by Western blot was replicated two to three times for each podocyte marker. Tables IA and IB show the final number of podocyte samples analyzed for each condition, as mean values of the replicates (NB control, n=4; NB+Rostafuroxin, n=5). The densitometric analysis was quantified as optical density, in arbitrary units.\nGlomeruli were isolated from NB kidneys by sieving and further manually purification. Glomeruli were then seeded in culture flasks (Corning, Sigma-Aldrich, Milan, Italy), pre-coated with collagen type IV (Sigma-Aldrich) at 37° C. in 5% CO2 atmosphere. On days 4 to 5, podocyte growth started and, by day 8, glomeruli were detached using trypsin-EDTA. […] Podocyte protein quantification (10 μg protein/lane) was performed by Western blotting technique by using specific antibodies against nephrin, podocin, ZO-1, adducin, synaptopodin and actin."}, "[4]": {"test_system": "rats chronically infused with ouabain (OS rats)", "experiment": "Total urinary protein excretion in ouabain-infused (OS) rats", "type": "in vivo, rat", "protocol": "as §1, §2, §3, §4"}, "[5]": {"settings": "OS rats orally treated for 8 weeks with Rostafuroxin 100 μg/kg/day, FIG. 6"}, "[6]": {"settings": "NB + Rostafuroxin 10^-9M vs NB controls"}, "[7]": {"settings": "NB podocytes, 5 days with Rostafuroxin 10^-9M, individual samples/replicates"}, "[8]": {"settings": "NB podocytes, 5 days with Rostafuroxin 10^-9M, mean ± sem"}},
  "note": "Several values for one entry are separate records, joined by “and”; a condition that tells them apart may be missing. Equal entries are not always repeated.",
  "data": [
    {"smiles": "C[C@]12CC[C@H](O)C[C@H]1CC[C@@H]1[C@@H]2CC[C@]2(C)[C@@](O)(c3ccoc3)CC[C@]12O", "note": "[Rostafuroxin]", "values": [
      {"measurement": "Nephrin expression from renal cortex (in words)", "setting": "[1]; [5]", "value": "increased"},
      {"measurement": "Nephrin optical density", "setting": "[1]; OS rats, 100 μg/kg os Rostafuroxin for 8 weeks, renal cortex microsomes, individual rats", "value": "51.4 arbitrary units and 50.8 arbitrary units and 76.1 arbitrary units and 57.4 arbitrary units and 48.8 arbitrary units and 53.8 arbitrary units and 64.7 arbitrary units and 54.8 arbitrary units"},
      {"measurement": "Nephrin optical density, mean ± sem", "setting": "[1]; OS rats, 100 μg/kg os Rostafuroxin for 8 weeks, renal cortex microsomes, n = 8", "value": "57.3 ± 3.1, n = 8 arbitrary units"},
      {"measurement": "systolic blood pressure (SBP) (in words)", "setting": "[2]; [5]", "value": "significantly reduced"},
      {"measurement": "Systolic blood Pressure", "setting": "[2]; OS rats, 100 μg/kg os Rostafuroxin for 8 weeks, individual rats", "value": "155 mmHg (3×) and 145 mmHg (2×) and 150 mmHg (2×) and 135 mmHg"},
      {"measurement": "Systolic blood Pressure, mean ± sem", "setting": "[2]; OS rats, 100 μg/kg os Rostafuroxin for 8 weeks, n = 8", "value": "148.8 ± 2.5, n = 8 mmHg"},
      {"measurement": "Actin, % vs. Ctrl.", "setting": "[3]; [6]", "value": "ns"},
      {"measurement": "Nephrin, % vs. Ctrl.", "setting": "[3]; [6]", "value": "+34%"},
      {"measurement": "Podocin, % vs. Ctrl.", "setting": "[3]; [6]", "value": "+60%"},
      {"measurement": "Synaptopodin, % vs. Ctrl.", "setting": "[3]; [6]", "value": "+143%"},
      {"measurement": "ZO-1, % vs. Ctrl.", "setting": "[3]; [6]", "value": "+86%"},
      {"measurement": "α-Adducin, % vs. Ctrl.", "setting": "[3]; [6]", "value": "+95%"},
      {"measurement": "amounts of Nephrin, ZO-1, Podocin, α-Adducin and Synaptopodin (in words)", "setting": "[3]; NB podocytes cultured 5 days with 10^-9M Rostafuroxin, FIG. 5", "value": "increased"},
      {"measurement": "Synaptopodin, optical density", "setting": "[3]; NB podocytes, 5 days with Rostafuroxin 10^-9M, individual samples", "value": "2.7 arbitrary units and 2.51 arbitrary units and 4.29 arbitrary units and 1.43 arbitrary units and 2.56 arbitrary units"},
      {"measurement": "Actin, optical density", "setting": "[3]; [7]", "value": "130.5 arbitrary units and 115 arbitrary units and 87.5 arbitrary units and 140.4 arbitrary units and 111 arbitrary units and 98 arbitrary units and 98.2 arbitrary units and 81.2 arbitrary units and 86.2 arbitrary units and 101.2 arbitrary units and 101 arbitrary units and 144.2 arbitrary units and 87.7 arbitrary units and 108 arbitrary units and 103 arbitrary units and 91.6 arbitrary units"},
      {"measurement": "Nephrin optical density", "setting": "[3]; [7]", "value": "24.53 arbitrary units and 27.06 arbitrary units"},
      {"measurement": "Podocin, optical density", "setting": "[3]; [7]", "value": "23.4 arbitrary units and 49.06 arbitrary units and 13.3 arbitrary units and 19.07 arbitrary units and 16.81 arbitrary units and 18.63 arbitrary units and 21.42 arbitrary units and 18.78 arbitrary units and 23.84 arbitrary units and 36.51 arbitrary units and 21.23 arbitrary units and 23.65 arbitrary units and 27.62 arbitrary units"},
      {"measurement": "ZO-1, optical density", "setting": "[3]; [7]", "value": "6.38 arbitrary units and 7.5 arbitrary units and 8.73 arbitrary units and 13.33 arbitrary units and 15.79 arbitrary units and 11.67 arbitrary units and 16.05 arbitrary units and 19.98 arbitrary units and 12.78 arbitrary units and 19.06 arbitrary units and 20.13 arbitrary units and 17.3 arbitrary units and 17.8 arbitrary units"},
      {"measurement": "α-Adducin, optical density", "setting": "[3]; [7]", "value": "22.23 arbitrary units and 6.06 arbitrary units and 5.70 arbitrary units and 6.77 arbitrary units and 8.06 arbitrary units and 7.53 arbitrary units and 9.33 arbitrary units and 7.07 arbitrary units"},
      {"measurement": "Nephrin, optical density, mean", "setting": "[3]; NB podocytes, 5 days with Rostafuroxin 10^-9M, mean", "value": 25.8, "unit": "arbitrary units"},
      {"measurement": "Actin, optical density, mean ± sem", "setting": "[3]; [8]", "value": "105.3 ± 4.75", "unit": "arbitrary units"},
      {"measurement": "Podocin, optical density, mean ± sem", "setting": "[3]; [8]", "value": "24.13 ± 2.6", "unit": "arbitrary units"},
      {"measurement": "Synaptopodin, optical density, mean ± sem", "setting": "[3]; [8]", "value": "2.70 ± 0.45", "unit": "arbitrary units"},
      {"measurement": "ZO-1, optical density, mean ± sem", "setting": "[3]; [8]", "value": "14.36 ± 1.3", "unit": "arbitrary units"},
      {"measurement": "α-Adducin, optical density, mean ± sem", "setting": "[3]; [8]", "value": "9.09 ± 1.9", "unit": "arbitrary units"},
      {"measurement": "urinary protein excretion (in words)", "setting": "[4]; [5]", "value": "significantly reduced"},
      {"measurement": "Proteinuria", "setting": "[4]; OS rats, 100 μg/kg os Rostafuroxin, 24-hours urine, individual rats", "value": "55.34 mg/24 h and 29.02 mg/24 h and 39.7 mg/24 h and 40.68 mg/24 h and 20.85 mg/24 h and 48.88 mg/24 h and 53.07 mg/24 h and 20.14 mg/24 h"},
      {"measurement": "Proteinuria, mean ± sem", "setting": "[4]; OS rats, 100 μg/kg os Rostafuroxin, 24-hours urine, n = 8", "value": "38.5 ± 4.9, n = 8 mg/24 h"}
    ]}
  ]
}
